For this test, the target named is T1, human recombinant IL-17A (Homo sapiens, UniProt Q16552).
T1 construct: purchased R&D Systems 7955-IL/CF
T1 sequence (Q16552 24-155): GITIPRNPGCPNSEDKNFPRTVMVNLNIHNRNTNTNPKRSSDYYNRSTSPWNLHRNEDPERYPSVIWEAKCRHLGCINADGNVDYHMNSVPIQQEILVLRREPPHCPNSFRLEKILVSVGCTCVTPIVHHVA
Description: IL-17A AlphaLISA assay (block binding of IL-17A to its receptor IL-17RA). The conditions noted are these: compounds pre-incubated with the IL-17A for 30 min (indicated by * in Table A); for IC50: read-out: AlphaLISA pIC50 (converted). In outline:
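PBS with 0.05% Tween-20 and 0.1% BSA. IL-17A stock 7.5 nM, IL-17RA/Fc stock 5 nM; compound–cytokine pre-incubation 24 h at RT, or 30 min where marked, then 90 min with receptor. pIC50 from 4-parameter logistic AlphaLISA signal, normalised to DMSO and 6 μM reference inhibitor.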
For orientation: In Alpha technology, singlet oxygen from a donor bead excites a nearby acceptor bead.

With `Cc1noc(C)c1-c1ccc(NC(=O)[C@@H](NC(=O)c2ccnn2C(C)C)C2CCCCC2)nc1` [Example 108, (S)—N-(1-Cyclohexyl-2-((5-(3,5-dimethylisoxazol-4-yl)pyridin-2-yl)amino)-2-oxoethyl)-1-isopropyl-1H-pyrazole-5-carboxamide], the IC50 was 0.126 µM.

As for `CCn1nccc1C(=O)N[C@H](C(=O)Nc1ccc(-c2c(C)noc2C)cn1)[C@H]1CC[C@H](C)CC1` [Example 109, N—((S)-2-((5-(3,5-Dimethylisoxazol-4-yl)pyridin-2-yl)amino)-1-((1r,4S)-4-methylcyclohexyl)-2-oxoethyl)-1-ethyl-1H-pyrazole-5-carboxamide], the IC50 was 0.1 µM.

As to `Cc1noc(C)c1-c1ccc(NC(=O)[C@@H](NC(=O)c2ccnn2C(C)C)[C@H]2CC[C@H](C)CC2)nc1` [Example 110, N—((S)-2-((5-(3,5-dimethylisoxazol-4-yl)pyridin-2-yl)amino)-1-((1r,4S)-4-methylcyclohexyl)-2-oxoethyl)-1-isopropyl-1H-pyrazole-5-carboxamide], the IC50 was 0.0794 µM.

For `CCc1nocc1C(=O)N[C@H](C(=O)Nc1ccc(-c2c(C)noc2C)cn1)[C@H]1CC[C@H](C)CC1` [Example 111, N—((S)-2-((5-(3,5-dimethylisoxazol-4-yl)pyridin-2-yl)amino)-1-((1r,4S)-4-methylcyclohexyl)-2-oxoethyl)-3-ethylisoxazole-4-carboxamide], the IC50 is 0.0794 µM.

Take `Cc1nocc1C(=O)N[C@H](C(=O)Nc1ccc(-c2c(C)noc2C)cn1)[C@H]1CC[C@H](C)CC1` [Example 112, N—((S)-2-((5-(3,5-dimethylisoxazol-4-yl)pyridin-2-yl)amino)-1-((1r,4S)-4-methylcyclohexyl)-2-oxoethyl)-3-methylisoxazole-4-carboxamide]: the IC50 is 0.1 µM.

Take `Cc1cnn(C)c1-c1ccc(NC(=O)C(NC(=O)c2ccnn2C)C2CCCCCCC2)nc1` (stereo not drawn) [Example 113, N-(1-Cyclooctyl-2-((5-(1,4-dimethyl-1H-pyrazol-5-yl)pyridin-2-yl)amino)-2-oxoethyl)-1-methyl-1H-pyrazole-5-carboxamide]: the IC50 is 0.158 µM.

Take `CCc1nocc1C(=O)N[C@H](C(=O)Nc1ccc(-c2c(C)noc2C)cn1)C1CCCCC1` [Example 114, (S)—N-(1-Cyclohexyl-2-((5-(3,5-dimethylisoxazol-4-yl)pyridin-2-yl)amino)-2-oxoethyl)-3-ethylisoxazole-4-carboxamide]: the IC50 was 0.158 µM.

With `Cc1noc(C)c1-c1ccc(NC(=O)[C@@H](NC(=O)c2ccnn2C)C2CCCCCC2)nc1` [Example 115, (S)—N-(1-Cycloheptyl-2-((5-(3,5-dimethylisoxazol-4-yl)pyridin-2-yl)amino)-2-oxoethyl)-1-methyl-1H-pyrazole-5-carboxamide], the IC50 was 0.126 µM.

Consider `Cc1nocc1C(=O)N[C@H](C(=O)Nc1ccc(-c2c(C)noc2C)cn1)C1CCCCCC1` [Example 116, (S)—N-(1-Cycloheptyl-2-((5-(3,5-dimethylisoxazol-4-yl)pyridin-2-yl)amino)-2-oxoethyl)-3-methylisoxazole-4-carboxamide], for which the IC50 was 0.0631 µM.

Turning to `Cc1noc(C)c1-c1ccc(NC(=O)[C@@H](NC(=O)c2cnnn2C)C2CCCCCC2)nc1` [Example 117, (S)—N-(1-Cycloheptyl-2-((5-(3,5-dimethylisoxazol-4-yl)pyridin-2-yl)amino)-2-oxoethyl)-1-methyl-1H-1,2,3-triazole-5-carboxamide], the IC50 was 0.501 µM.

For the molecule `CCn1nccc1C(=O)N[C@H](C(=O)Nc1ccc(-c2c(C)noc2C)cn1)C1CCCCC1` [Example 118, (S)—N-(1-Cyclohexyl-2-((5-(3,5-dimethylisoxazol-4-yl)pyridin-2-yl)amino)-2-oxoethyl)-1-ethyl-1H-pyrazole-5-carboxamide], the IC50 is 0.158 µM.

Regarding `Cc1c(-c2ccc(NC(=O)[C@@H](NC(=O)c3ccnn3C)C3CCCCC3)cc2)ccc(=O)n1C` [Example 119, (S)—N-(1-Cyclohexyl-2-((4-(1,2-dimethyl-6-oxo-1,6-dihydropyridin-3-yl)phenyl)amino)-2-oxoethyl)-1-methyl-1H-pyrazole-5-carboxamide], the IC50 was 0.501 µM.

For `Cc1nonc1C(=O)N[C@H](C(=O)Nc1ccc(-c2c(C)noc2C)cn1)[C@H]1CC[C@H](C)CC1` [Example 120, N—((S)-2-((5-(3,5-Dimethylisoxazol-4-yl)pyridin-2-yl)amino)-1-((1r,4S)-4-methylcyclohexyl)-2-oxoethyl)-4-methyl-1,2,5-oxadiazole-3-carboxamide], the IC50 is 0.251 µM.

`Cc1nocc1C(=O)N[C@H](C(=O)Nc1ccc(-c2c(C)noc2C)cn1)C1CCCCC1` [Example 121, (S)—N-(1-Cyclohexyl-2-((5-(3,5-dimethylisoxazol-4-yl)pyridin-2-yl)amino)-2-oxoethyl)-3-methylisoxazole-4-carboxamide]: the IC50 was 0.251 µM.

For `CCn1nccc1C(=O)N[C@H](C(=O)Nc1ccc(-c2c(C)noc2C)cn1)C1CCCCCC1` [Example 122, (S)—N-(1-Cycloheptyl-2-((5-(3,5-dimethylisoxazol-4-yl)pyridin-2-yl)amino)-2-oxoethyl)-1-ethyl-1H-pyrazole-5-carboxamide], the IC50 was 0.0398 µM.

For `Cc1noc(C)c1-c1ccc(NC(=O)[C@@H](NC(=O)c2ccnn2C(C)C)C2CCCCCC2)nc1` [Example 123, (S)—N-(1-Cycloheptyl-2-((5-(3,5-dimethylisoxazol-4-yl)pyridin-2-yl)amino)-2-oxoethyl)-1-isopropyl-1H-pyrazole-5-carboxamide], the IC50 is 0.0398 µM.

As for `CCc1nocc1C(=O)N[C@H](C(=O)Nc1ccc(-c2c(C)noc2C)cn1)C1CCCCCC1` [Example 124, (S)—N-(1-Cycloheptyl-2-((5-(3,5-dimethylisoxazol-4-yl)pyridin-2-yl)amino)-2-oxoethyl)-3-ethylisoxazole-4-carboxamide], the IC50 is 0.0398 µM.

Consider `Cc1nnn(C)c1-c1ccc(NC(=O)[C@@H](NC(=O)c2ccnn2C)[C@H]2CC[C@H](C)CC2)nc1` [Example 125, N—((S)-2-((5-(1,4-Dimethyl-1H-1,2,3-triazol-5-yl)pyridin-2-yl)amino)-1-((1r,4S)-4-methylcyclohexyl)-2-oxoethyl)-1-methyl-1H-pyrazole-5-carboxamide], for which the “AlphaLISA pIC50” value is 6.8*.

Take `CCn1nccc1C(=O)N[C@H](C(=O)Nc1ccc(-c2c(C)cnn2C)cn1)[C@H]1CC[C@H](C)CC1` [Example 126, N—((S)-2-((5-(1,4-Dimethyl-1H-pyrazol-5-yl)pyridin-2-yl)amino)-1-((1r,4S)-4-methylcyclohexyl)-2-oxoethyl)-1-ethyl-1H-pyrazole-5-carboxamide]: the IC50 was 0.0501 µM.

Turning to `CCc1nocc1C(=O)N[C@H](C(=O)Nc1ccc(-c2c(C)cnn2C)cn1)[C@H]1CC[C@H](C)CC1` [Example 127, N—((S)-2-((5-(1,4-Dimethyl-1H-pyrazol-5-yl)pyridin-2-yl)amino)-1-((1r,4S)-4-methylcyclohexyl)-2-oxoethyl)-3-ethylisoxazole-4-carboxamide], the IC50 was 0.0398 µM.

`Cc1nonc1C(=O)N[C@H](C(=O)Nc1ccc(-c2c(C)noc2C)cn1)C1CCCCCC1` [Example 128, (S)—N-(1-Cycloheptyl-2-((5-(3,5-dimethylisoxazol-4-yl)pyridin-2-yl)amino)-2-oxoethyl)-4-methyl-1,2,5-oxadiazole-3-carboxamide]: the IC50 is 0.251 µM.

`Cc1noc(C)c1-c1ccc(NC(=O)[C@@H](NC(=O)c2ccnn2C)C2CCCCC2)nc1` [Example 129, (S)—N-(1-Cyclohexyl-2-((5-(3,5-dimethylisoxazol-4-yl)pyridin-2-yl)amino)-2-oxoethyl)-1-methyl-1H-pyrazole-5-carboxamide]: the IC50 was 0.316 µM.

Consider `Cc1noc(C)c1-c1ccc(NC(=O)[C@@H](NC(=O)c2ccc3n2CCNC3)C2CCCCC2)nc1` [Example 130, (S)—N-(1-Cyclohexyl-2-((5-(3,5-dimethylisoxazol-4-yl)pyridin-2-yl)amino)-2-oxoethyl)-1,2,3,4-tetrahydropyrrolo[1,2-a]pyrazine-6-carboxamide], for which the IC50 was 0.316 µM.

In the case of `Cc1cnn(C)c1-c1ccc(NC(=O)[C@@H](NC(=O)c2conc2C)[C@H]2CC[C@H](C)CC2)nc1` [Example 131, N—((S)-2-((5-(1,4-Dimethyl-1H-pyrazol-5-yl)pyridin-2-yl)amino)-1-((1r,4S)-4-methylcyclohexyl)-2-oxoethyl)-3-methylisoxazole-4-carboxamide], the IC50 was 0.0631 µM.

As for `Cc1cnn(C)c1-c1ccc(NC(=O)[C@@H](NC(=O)c2ccnn2C)C2CCCCCC2)nc1` [Example 132, (S)—N-(1-Cycloheptyl-2-((5-(1,4-dimethyl-1H-pyrazol-5-yl)pyridin-2-yl)amino)-2-oxoethyl)-1-methyl-1H-pyrazole-5-carboxamide], the IC50 was 0.0794 µM.

In the case of `Cc1cnn(C)c1-c1ccc(NC(=O)[C@@H](NC(=O)c2cnnn2C)C2CCCCCC2)nc1` [Example 133, (S)—N-(1-Cycloheptyl-2-((5-(1,4-dimethyl-1H-pyrazol-5-yl)pyridin-2-yl)amino)-2-oxoethyl)-1-methyl-1H-1,2,3-triazole-5-carboxamide], the IC50 is 0.251 µM.

Take `Cc1cnn(C)c1-c1ccc(NC(=O)[C@@H](NC(=O)c2nonc2C)C2CCCCCC2)nc1` [Example 134, (S)—N-(1-Cycloheptyl-2-((5-(1,4-dimethyl-1H-pyrazol-5-yl)pyridin-2-yl)amino)-2-oxoethyl)-4-methyl-1,2,5-oxadiazole-3-carboxamide]: the IC50 was 0.2 µM.

For the origin of these results see patent publication US20230227427A1, “IL-17A MODULATORS” (SANOFI, priority 2010, published 2023).
